Assays:
[1] = tested on: d(5′-CGCGAATTCGCG-3′)2 (DNA, duplex) CGCGAATTCGCG; experiment: ethidium bromide displacement, fluorescence quenching, double-log plot; conditions: 100 mM phosphate; pH 7.0, 298 K; apparent; ethidium bromide displaced; 20 μM DNA
[2] = tested on: d(5′-CGCGAATTCGCG-3′)2 (DNA, duplex) CGCGAATTCGCG; experiment: 1H NMR titration, NOESY; conditions: 100 mM phosphate, pH 7.0, 298 K, H2O:D2O 9:1

Compound	Kb [1]	binding ([2]; minor and major groove, non-specific)	binding ([2]; 10 mM NaCl, partial intercalation T7/T8 and groove, precipitates without NaCl)
[Ru+2].[Ru+2].[Ru+2].c1cc[cH-]c1.c1cc[cH-]c1.c1cc[cH-]c1.c1ccc(-c2ccc(-c3ccc(-c4ccccc4)cc3)cc2)cc1	2.803 ± 0.121 × 10^3 M^−1	–	–
[Ru+2].[Ru+2].c1cc[cH-]c1.c1cc[cH-]c1.c1ccc(-c2ccc(-c3ccc(-c4ccccc4)cc3)cc2)cc1	5.933 ± 0.001 × 10^3 M^−1	yes	–
[Ru+2].[Ru+2].c1cc[cH-]c1.c1cc[cH-]c1.c1ccc(-c2ccc(-c3ccccc3)cc2)cc1	0.815 ± 0.001 × 10^3 M^−1	–	–
[Ru+2].c1cc[cH-]c1.c1ccc(-c2ccc(-c3ccc(-c4ccccc4)cc3)cc2)cc1	8.111 ± 0.001 × 10^3 M^−1	–	yes
[Ru+2].c1cc[cH-]c1.c1ccc(-c2ccc(-c3ccccc3)cc2)cc1	3.532 ± 0.001 × 10^3 M^−1	–	–
[Ru+2].c1cc[cH-]c1.c1ccc(-c2ccccc2)cc1	2.330 ± 0.001 × 10^3 M^−1	–	–
